Experimental data as given in patent publication US6242445A, “Benzimidazole derivative” (Kureha Chemical Industry Co., Ltd., priority 1998, dated 2001).

Experiments:
[1] = test system: kidney disease model rats; assay: Survival time of kidney diseased animals; format: in vivo, Sprague-Dawley female rats; settings: for survival time / Average survival time: 20 mg/kg/day; for Average survival time: observation period eight weeks (upper limit), control 5.0; for effect on survival compared with reference substance: vs DuP753
Experimental: (§1) In this Example, an action to lower blood pressure was evaluated. That is, each of 2-ethoxy-1-[[4'- (2'-N,N-dimethylamino-ethoxycarbonyl) phenyl]methyl]-1H-benzimidazole-6-carboxylic acid morpholide (Compound No. 13) prepared in Example 6, 2-ethoxy-1-[[4'-(2"-morpholinoethoxycarbonyl)-phenyl]methyl]-1H-benzimidazole-6-carboxylic acid piperidinamide (Compound No. 57) prepared in Example 28, or the reference substance was forcibly orally administered to kidney disease model rats, and the action of lowering the blood pressure was observed. The kidney disease model rats were prepared by a ligature of branches of renal artery in accordance with a conventional method. Namely, the left hilum renalis of Sprague-Dawley female rats was exposed under anesthesia, and one of four secondary branches of the renal artery was left unligated, while the remaining three branches were ligated, respectively. After a week, the hilum renalis (artery, vein, and ureter) of the right kidney were further ligated to thereby prepare rats whose renal function was lowered to approximately 1/8 of the normal function. Each group consisted of eight rats. The drugs to be tested (20 mg/kg) were administered to each administering group, and only water was administered to a control group. Two days after the administration, the systolic blood pressure was measured by the tail cuff method using a blood pressure measuring apparatus (UR^5000; Ueda).
In this Example, an action to survival time of kidney diseased animals was evaluated. As compounds to be examined, 2-ethoxy-1-[[4'-(2"-N,N-dimethylamino-ethoxycarbonyl)-phenyl]methyl]-1H-benzimidazole-6-carboxylic acid morpholide (Compound No. 13) prepared in Example 6, and 2-ethoxy-1-[[4'-(2"-morpholinoethoxycarbonyl)phenyl]methyl]-1H-benzimidazole-6-carboxylic acid piperidinamide (Compound No. 57) prepared in Example 28 were used.
The kidney disease model rats were prepared as in Example 38. Fifteen groups (8 rats per group) were prepared in a manner such that there was no major difference between the groups in the serum creatinine value and the blood urea nitrogen value indicating renal function. The rats in each group were allowed to freely take up food and water. […] To the rats in the control group, only water was forcibly orally administered every day. If kidney diseases are aggravated, the rat will die of uremia. Thus, the survival time was observed as a comprehensive indication of the improvement of the effect on the kidney diseases. The observation period was eight weeks. Thus if all rats survived, the average survival time is eight weeks, and is an upper limit.

[2] = test system: kidney disease model rats; assay: Action to lower blood pressure in kidney disease model rats; format: in vivo, Sprague-Dawley female rats; settings: 20 mg/kg oral; for action of lowering the blood pressure: in comparison with the control group; for Blood pressure: systolic, tail cuff, average, two days after administration, control 210
Experimental: as §1

[3] = test system: kidney disease model rats; assay: Action to kidney diseases, renal function indicatory values; format: in vivo, Sprague-Dawley female rats; settings: for Creatinine clearance / blood urea nitrogen value / serum creatinine value / Creatinine / Blood urea nitrogen: 20 mg/kg/day, two weeks; for Creatinine / Blood urea nitrogen: serum; for Creatinine: control 2.0; for Blood urea nitrogen: control 100; for effects on renal function compared with reference substance: vs DuP753
Experimental: The kidney disease model rats were prepared by a ligature of branches of renal artery in accordance with a conventional method. Namely, the left hilum renalis of Sprague-Dawley female rats was exposed under anesthesia, and one of four secondary branches of the renal artery was left unligated, while the remaining three branches were ligated, respectively. After a week, the hilum renalis (artery, vein, and ureter) of the right kidney were further ligated to thereby prepare rats whose renal function was lowered to approximately 1/8 of the normal function. Each group consisted of eight rats. The drugs to be tested (20 mg/kg) were administered to each administering group, and only water was administered to a control group. Two days after the administration, the systolic blood pressure was measured by the tail cuff method using a blood pressure measuring apparatus (UR^5000; Ueda).
In this Example, an action to kidney diseases was evaluated on the basis of a renal function indicatory value.
Fifteen groups (8 rats per group) were prepared in a manner such that there was no major difference between the groups in the serum creatinine value and the blood urea nitrogen value indicating renal function. The rats in each group were allowed to freely take up food and water. […] To the rats in the control group, only water was forcibly orally administered every day. After two weeks, 0.2 ml of blood was collected from the carotid artery of the rats under anesthesia, and centrifuged to obtain serum. Using 25 μl of the serum, the serum creatinine (Scr) was measured by a creatinine analytical instrument (Beckman). Using 10 μl of the serum, the blood urea nitrogen (BUN) was measured by a BUN analytical instrument (Beckman). The creatinine clearance was evaluated as follows:
After the serum creatinine measurement, rats were placed in urinary metabolic cages for 24 hours to collect urine. A urinary creatine concentration (Ucr) was measured by a creatinine analytical instrument, and a total volume of urination (Uvol) was also measured. The creatinine clearance (CCr) was calculated by the following formula: [formula]
In the above formula, the unit of "Ucr" and "Scr" is "mg/ml" and the unit of "Uvol" is "ml".

[4] = molecular target: T1, angiotensin II receptor subtype 1 (AT1) (Oryctolagus cuniculus, UniProt P34976); assay: Binding assay, angiotensin II receptor subtype 1 (AT1); parameters: species or system rabbits
T1 construct: from adrenal glands in rabbits; from tissue; host or cells: adrenal glands of rabbits
T1 sequence (P34976 1-359): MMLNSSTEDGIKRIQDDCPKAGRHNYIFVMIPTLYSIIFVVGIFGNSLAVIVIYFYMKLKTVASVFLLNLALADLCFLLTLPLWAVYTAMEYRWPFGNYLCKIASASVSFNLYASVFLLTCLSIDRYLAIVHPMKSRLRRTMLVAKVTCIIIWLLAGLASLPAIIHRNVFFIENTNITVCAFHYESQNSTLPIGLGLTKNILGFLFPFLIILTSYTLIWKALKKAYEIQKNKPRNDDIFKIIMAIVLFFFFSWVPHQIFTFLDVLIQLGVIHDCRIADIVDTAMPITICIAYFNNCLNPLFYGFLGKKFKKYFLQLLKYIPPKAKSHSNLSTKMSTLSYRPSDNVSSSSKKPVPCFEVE
Experimental: In this Example, a binding assay was carried out. That is, the affinity to the angiotensin II receptor subtype 1 orsubtype 2 was evaluated in accordance with the method described in Biochem. Pharmacol., 33, 4057-4062 (1984).
Specifically, the measurement of the total binding in the presence of each drug was performed as follows:
A mixture (final volume=0.25 ml) of a drug in a given concentration (the drug was dissolved in DMSO, and diluted to a double volume with a buffer attached to a drug discovery system to prepare a sample for the assay; 0.025 ml), a tracer (0.025 ml), and receptors (0.2 ml) was incubated [in the case of the angiotensin II receptor subtype 1 (AT1), at room temperature for 3 hours, and in the case of the subtype 2 (AT2), at 37° C. for 1 hour]. Then, the reaction mixture was filtered with suction (a GF/C filter was used in AT1, and a GF/B filter was used in AT2). The filter papers after filtration with suction (the tracer bound to the receptors) were counted by a γ-well counter (ARC-500, Aloka). The non-specific bindings were measured by repeating the above method, except that a large excess amount of a displacer was added. The specific binding of the drug in the given concentration was calculated by subtracting the non-specific binding from the total binding, respectively.
tracer: ^3 H-angiotensin II

| Structure (SMILES) | survival time [1] | Average survival time [1] | effect on survival compared with reference substance [1] | action of lowering the blood pressure [2] | Blood pressure [2] | Creatinine clearance ([3]; control 0.22) | Creatinine clearance ([3]; vs control) | blood urea nitrogen value ([3]; vs control) | serum creatinine value ([3]; vs control) | Creatinine [3] | Blood urea nitrogen [3] | effects on renal function compared with reference substance [3] | inhibitory effect / binding activity / antagonism at angiotensin II receptor [4] |
| --- | --- | --- | --- | --- | --- | --- | --- | --- | --- | --- | --- | --- | --- |
| CCOc1nc2ccc(C(=O)N3CCOCC3)cc2n1Cc1ccc(C(=O)OCCN(C)C)cc1 [Compound No. 13, 2-ethoxy-1-[[4'-(2"-N,N-dimethylaminoethoxycarbonyl)phenyl]methyl]-1H-benzimidazole-6-carboxylic acid morpholide] | clearly prolonged the survival time | 7.5 weeks | comparable or superior to that of the reference substance | an influence on the blood pressure was not substantially observed | 208 mmHg | 0.35 mL/min | clearly improved | clearly became lower values | clearly became lower values | 1.5 mg/dL | 75 mg/dL | comparable to those of the reference substance | do not substantially exhibit a conventional angiotensin II receptor antagonism |
| CCOc1nc2ccc(C(=O)N3CCCCC3)cc2n1Cc1ccc(C(=O)OCCN2CCOCC2)cc1 [Compound No. 57, 2-ethoxy-1-[[4'-(2"-morpholinoethoxycarbonyl)phenyl]methyl]-1H-benzimidazole-6-carboxylic acid piperidinamide] | clearly prolonged the survival time | 7.5 weeks | comparable or superior to that of the reference substance | an influence on the blood pressure was not substantially observed | 205 mmHg | 0.33 mL/min | clearly improved | clearly became lower values | clearly became lower values | 1.5 mg/dL | 72 mg/dL | comparable to those of the reference substance | do not substantially exhibit a conventional angiotensin II receptor antagonism |
